Assay results reported in patent US10295530B2, “Functional assay for cancer recurrence and malignant potential” (THE BRIGHAM AND WOMEN'S HOSPITAL, INC., priority 2012, dated 2019).

Experiments:
HMLER-HR responder cells = HMLER-HR responder cells in depleted medium (D.M.) plus EGF and/or insulin, 4 days: flow cytometry and qPCR; assay type: cell-based, human; settings: for CD44 expression / CD44/CD24 expression patterns (flow cytometry) / Oct4 expression (qPCR) / Zeb1 expression (qPCR) / c-Myc expression (qPCR): added to cells kept in D.M. for 4 days, relative to C.M.
Excerpt: FIG. 23D. Flow cytometric density plots representing CD44/CD24 profiles of responding tumor cells after 4 days in depleted medium, D.M. (medium devoid of EGF and insulin), or D.M.+indicated supplements. Graph represents average responding tumor cell CD441CD24 profiles under indicated conditions relative to that of C.M (samples run in triplicate).
FIG. 23E. Expression levels of indicated malignancy profile genes in responder tumor cells after 4 days in indicated culture conditions relative to those maintained in C.M. Data represent average of three independent experiments, where each sample was run in triplicate.
FIG. 26E. Expression levels of c-myc in HMLER-HR responding tumor cells after 4 days in response to indicated doses of EGF. Data are represented relative to cells that had been maintained in depleted medium (D.M.; medium devoid of EGF and insulin). Data are expressed as mean±SEM; samples tested in triplicate.
HMLER-HR cells were maintained in DMEM-F12 (1:1) medium, supplemented with 5% calf serum, 10 ng/ml human recombinant EGF (Sigma E9644), 10 μg/ml insulin (Sigma 19278), 1 μg/ml hydrocortisone (Sigma 110888) and 1% penicillin-streptomycin. BPLER cells were maintained in WIT Medium (STEMGENT), and MCF7-Ras cells in DMEM media (Thermo Scientific) supplemented with 10% heat inactivated FBS (GIBCO), and 1% penicillin-streptomycin. BT549 cells were maintained in RPMI medium supplemented with 10% FBS.
RNA was extracted from cells or snap-frozen tissues using Trizol reagent following manufacturer's instructions (INVITROGEN). RNA was retrotranscribed with ProtoScript AMV First Strand cDNA Synthesis Kit (New England BioLabs). PCR amplification was performed on a ABI Prism 7900 sequence detector using SYBR-Green (Applied Biosystems). Analysis was done using delta-delta Ct method, normalizing first to GAPDH.
Whether EGFR and IGF1R signaling were necessary and/or sufficient for modulating responding tumor malignancy remained to be investigated. To do so, the effects of either depleting EGF and/or insulin from HMLER-HR responder cells that had been cultured in complete medium (C.M.) or adding EGF and/or insulin to cells that had been cultured in depleted medium (D.M., medium depleted of both EGF and insulin) were examined. For these studies, cells were treated under various conditions for 4 days, then assessed differentiation status by flow cytometry, expression of malignancy factors (e.g. Oct-4, Zeb1, c-myc) by qPCR, and tumor-forming capacity by soft agar colony formation.

GFP+ responder cells = assay: Co-culture of GFP+ responder cells with BMCs from aspirin or vehicle treated mice, CD24 by flow cytometry; assay type: cell-based, human; settings: BMCs from aspirin treated LBC-bearing mice; same with vehicle
Description: FIG. 35D. Flow cytometric analysis of CD24 expression on GFP+ responder cells co-cultured with indicated BMCs.
BMCs were harvested and tested for functional activity as previously described (McAllister et al., 2008). In vitro instigation assays were conducted by co-culturing 1×10^4 GFP-positive responder tumor cells with 1×10^6 BMCs harvested from mice bearing […], TNBC or LBC Instigators. Co-cultured cells were maintained for 4 days in BMDC medium (DMEM, 5% FBS, 5% horse serum, 10^−6 M hydrocortisone), adding fresh medium on day 2.
In order to understand whether BMCs from LBC tumor bearing mice directly mediated tumor cell surface enrichment of CD24, adherent GFP-positive (GFP+) responding tumor cells were cultured with BMCs prepared from various cohorts of mice and analyzed tumor cell expression of CD24 after 4 days by flow cytometry.

[1] = system: instigating LBC tumor / host platelets and bone marrow; assay: Aspirin treatment in LBC-mediated systemic instigation: instigating LBC tumor, platelet counts, bone marrow VEGFR2+ cells; assay type: in vivo, mice; settings: aspirin 100 mg/kg i.p. once per week vs vehicle
Description: (§1) FIG. 35A. Experimental scheme to test effects of aspirin on LBC-mediated systemic instigation. All mice were injected with responders and LBC instigating tumors and treated with either 100 mg/kg aspirin or vehicle control; n=10 (5 mice per cohort for 2 independent experiments).
FIG. 35C. Numbers of VEGFR2+ cells in the bone marrow of experimental mice relative to those of cancer-free mice.
(§2) 450 mg Aspirin (Sigma, A2093-100G) was dissolved in 11 ml DMSO to make a 41 mg/ml concentrated stock solution. 30 min before injection, 1.6 ml of stock solution was diluted in 11.6 ml of PBS to make a 5 mg/ml injection solution.
(§3) Vehicle control was made with 1.6 ml DMSO diluted in 11.6 ml PBS. Mice were injected i.p. with aspirin at 100 mg/kg, once per week. A similar volume:weight ratio of vehicle was administered to control animals.
In order to explore therapeutic potential and identify whether platelets were necessary for delivering the pro-tumorigenic instigating stimulus in the LBC macroenvironment, we treated mice with aspirin, which inhibits platelet activity (28). Mice were injected with LBC instigators that were permitted to grow for 4 weeks prior to initiation of weekly treatments of either aspirin or vehicle control; responders were then injected into these mice two days following the first aspirin treatment (FIG. 35A). […]

[2] = system: responding tumors (HMLER-HR) opposite instigating LBC; assay: Aspirin treatment in LBC-mediated systemic instigation: responding tumors; assay type: in vivo, mice; settings: aspirin 100 mg/kg i.p. once per week
Description: as §1
All experiments were performed in accordance with regulations of the Children's Hospital Boston Institutional Animal Care and Use Committee (protocol 09-12-1566). Unless otherwise indicated, tumor cells were suspended in 20% […] (BD Biosciences) and injected subcutaneously into nonirradiated mice. Tumors were measured on the flanks of live mice using calipers; volume was calculated as 0.5*length*(width^2).
as §2, §3
In order to explore therapeutic potential and identify whether platelets were necessary for delivering the pro-tumorigenic instigating stimulus in the LBC macroenvironment, we treated mice with aspirin, which inhibits platelet activity (28). Mice were injected with LBC instigators that were permitted to grow for 4 weeks prior to initiation of weekly treatments of either aspirin or vehicle control; responders were then injected into these mice two days following the first aspirin treatment (FIG. 35A). While responding tumors formed in 90% of the mice treated with vehicle control, only 20% of the mice treated with aspirin developed responding tumors (FIG. 35B).

[3] = patients treated with erlotinib (Numico et al., 2011); cited from earlier work

| Molecule | CD44 expression / CD44/CD24 expression patterns (flow cytometry) (HMLER-HR responder cells) | Oct4 expression (qPCR) (HMLER-HR responder cells) | Zeb1 expression (qPCR) (HMLER-HR responder cells) | c-Myc expression (qPCR) (HMLER-HR responder cells) | also measured |
| --- | --- | --- | --- | --- | --- |
| insulin: insulin (Sigma 19278), medium supplement | not sufficient to restore | restored | remained significantly lower than the controls | remained significantly lower than the controls | – |
| CC(=O)Oc1ccccc1C(=O)O [aspirin, Aspirin] | – | – | – | – | increase in tumor cell CD24 expression above control BMCs from tumor-free mice (GFP+ responder cells): ~90%; instigating LBC tumor growth [1]: did not significantly affect; incorporation of VEGFR2-positive cells into responding tumor sites ([2]; LBC instigating environment): completely inhibited; p-STAT3 in responding tumor site tissues ([2]; LBC instigating environment): negative; mice that developed responding tumors (incidence) ([2]; LBC instigators, vehicle control 90%): 20% |
| C#Cc1cccc(Nc2ncnc3cc(OCCOC)c(OCCOC)cc23)c1 [erlotinib] | – | – | – | – | adverse effect reported for patients [3]: skin rash |
| EGF: human recombinant EGF (Sigma E9644) | sufficient to restore | unaffected | restored | restored | c-myc upregulation in response to doses of EGF (HMLER-HR responder cells; HMLER-HR, 4 days, relative to D.M.): dose-dependent |
